Assay results published in patent publication US11229665B2, “Compound of glycosaminoglycan and its fabrication method as well as application” (Holy Stone Healthcare Co., Ltd., priority 2013, dated 2022).

Key:
HCT15 cells = assay: In vitro cytotoxicity (MTT cell viability); format: cell-based, human; conditions: 24 hours
HT29 cells = assay: In vitro cytotoxicity (MTT cell viability); format: cell-based, human; conditions: 24 hours
[1] = Body weight in xenograft nude mice model; format: in vivo, BALB/c athymic (nu+/nu+) mice; conditions: HT29 xenograft mice; 1.5 mg/kg Nimesulide or equivalent, tail vein, within 24 days
Method: 3. Tumor sizes and body weight were measured every 3 or 5 days for the duration of the experiment.
6. Mice were administered via tail vein injections at doses of Nimesulide (1.5 mg/kg), HA-Nimesulide (equivalent to 1.5 mg/kg of Nimesulide) or PBS respectively with an interval of 48 or 72 hours.
7. The tumor size and change in body weight of each mouse were recorded.

[2] = Adhesion of fluorescent HA (HA-f) in colon tissue (IVIS image system); design: species or system SD-rat (Sprague-Dawley Rat); conditions: 0.5% HA-f, 2 hours
Method: 1. 0.25 g high molecule weight sodium hyaluronate powder (HHA; Mw: 2 MDa; Freda) and 0.25 g low molecule weight sodium hyaluronate powder (LHA; Mw: 0.35 MDa; Freda) were added into 50 ml PBS buffer (Phosphate buffered saline) respectively to form 0.5% solution, and then stirred for 6 hours until the powder was totally dissolved. 0.25 g medium molecule weight sodium hyaluronate powder (MHA; Mw: 1 MDa; Freda) was added into 50 ml PBS buffer, and then stirred for 6 hours until the powder was totally dissolved and ready for use in the following steps.
2. Fluorescent HA (HA-f) was prepared by (1) 0.39 g MES free acid (2-(N-morpholino) ethanesulfonic acid, Calbiochem) and was dissolved in 100 ml dd water. (2) Solution A: 65 mg fluroresceinamine powder, (isomer I, Fluka) was dissolved in 9 ml 95% EtOH solution and then stirred for 10 minutes under a condition that light was prohibited. […] (8) The product after reaction was poured into a dialysis tubing (MW: 12000˜14000) in 5 L dd water as a dialysis solution and then stirred for 5 days at 4° C. under a condition that light was prohibited with dialysis solution being changed every 12 hours until the dialysis solution had no fluorescence. […]
7. All values are calculated as means of n observations. The histological index was analyzed by Student's t-test.

[3] = Lenalidomide series, 3.125-400 μM
[4] = Nimesulide series, 3.125-200 μM

With `Nc1cccc2c1CN(C1CCC(=O)NC1=O)C2=O` (stereo not shown) [Lenalidomide] the “cytotoxicity effect (cell viability, MTT)” value (“cytotoxicity effect” for short) (HCT15 cells; [3]) was “almost the same in both cell lines” and the “cytotoxicity effect” value (HT29 cells; [3]) was “almost the same in both cell lines”.

For `CS(=O)(=O)Nc1ccc([N+](=O)[O-])cc1Oc1ccccc1` [NiNO2, Nimesulide], the “cytotoxicity effect” value (HCT15 cells; [4]) was “generally better than modified production”, the average body weight [1] was “almost the same” and the “cytotoxicity effect” value (HT29 cells; [4]) was “generally better than modified production”.

In the case of sodium hyaluronate [1 MDa HA], the “fluorescent index of adhesion” value ([2]; normal or injured colon tissues) is reported as “higher than 2 MDa HA”.

With sodium hyaluronate [350 KDa HA] the “fluorescent index of adhesion” value ([2]; injured colon tissues, normal colon tissue defined as 1) was “obviously higher than HAs of the other two average molecular weights”.
